Experimental data taken from paper PMC6544596 (Drugs in R&D, 2019).
pIC50: −log10 of the molar value. Where two headings read alike, the source gives them in different places.

What was measured:
[1] = test system: A53T mice; test: α-Synuclein, HVA and dopamine levels in transgenic A53T mice; type: in vivo, mouse
[2] = test system: PDGFR-β; conditions: cited from earlier work; for pIC50: read-out: IC50 PDGFR-β
[3] = test system: Abl; conditions: read-out: IC50 Abl; cited from earlier work
[4] = test system: SRC; conditions: cited from earlier work; for pIC50: read-out: IC50 SRC
[5] = test system: APP mice; test: Aβ and tau levels in transgenic APP mice; type: in vivo, mouse; conditions: 3 consecutive weeks; for Insoluble human Aβ vs DMSO (in words): p < 0.01, 0.001
[6] = test system: DDR1/2; conditions: read-out: IC50 DDR1/2; cited from earlier work
[7] = Pharmacokinetics of a single intraperitoneal dose in mice; type: in vivo, C57BL/6J mice; conditions: for CNS penetrance (in words): Fig. 8 summary of kinetics profiling in animal models; for time after administration at which agents are completely washed out of the brain: IP administration; for Tmax: brain and plasma; for Kp: brain/plasma
[8] = test system: PDGFR-α; conditions: cited from earlier work
[9] = test system: c-Kit; conditions: read-out: IC50 c-Kit; cited from earlier work
[10] = test system: DDR2; conditions: read-out: IC50 DDR2; cited from earlier work
[11] = test system: rat B35 neuroblastoma transfected with Aβ42; test: Aβ42 ELISA in Aβ42-transfected B35 neuroblastoma cells; type: cell-based; conditions: 10 µM, 24 h
[12] = male, C57BL/6J, mouse, ip, 5 mg/kg
[13] = male, C57BL/6J, mouse, plasma, ip, 5 mg/kg
[14] = single IP dose 1.25 mg/kg, mice
[15] = 4- to 7-month-old APP mice, 10 mg/kg IP
[16] = male, C57BL/6J, mouse, ip, 10 mg/kg
[17] = male, C57BL/6J, mouse, plasma, ip, 10 mg/kg
[18] = 12-month-old A53T mice, 5 mg/kg IP once daily, 3 consecutive weeks

SMILES | pIC50 [3] | inhibition of Src [4] | pIC50 [4] | pIC50 [6] | CNS penetrance (in words) [7] | time after administration at which agents are completely washed out of the brain ([7]; mice) [h] | Tmax [7, 12] [h] | Kp [7, 12] | AUC [7, 13] [µM·h] | Cmax [7, 13] [µM] | AUC Brain ([7]; single IP dose 5 mg/kg, mice) | C max Brain ([7]; single IP dose 5 mg/kg, mice) [µM] | pIC50 [2] | pIC50 [9] | pIC50 ([8]; read-out: IC50 PDGFR-α) | effect on total tau levels (in words) [5, 15] | Insoluble human Aβ vs DMSO (in words) [5, 15] | Tmax [7, 16] [h] | AUC [7, 17] [µM·h] | Cmax [7, 17] [µM] | other results
Cc1ccc(NC(=O)c2ccc(CN3CC[C@H](N(C)C)C3)c(C(F)(F)F)c2)cc1Nc1nccc(-c2cncnc2)n1 [Bafetinib] | 8.24 | do not appear to inhibit Src | 5.77 | 6.66 | high | 4 to 5 | 1 | 0.12 | 69.5 | 19.4 | 4.193 | 2.362 | – | – | – | – | – | – | – | – | levels of α-syn measured via ELISA (in words) ([1]; A53T mice, 10, 5 or 2.5 mg/kg IP daily): did not reduce; ELISA homovanillic acid and dopamine measurements (in words) ([1]; A53T mice, bafetinib treatment IP daily): remain unchanged; affinity to PDGFRβ [2]: no affinity; reduction of the level of soluble Aβ40 compared to DMSO ([5]; APP mice, 5 mg/kg IP): 9%; reduction in the insoluble Aβ42 compared with DMSO ([5]; APP mice, 5 mg/kg IP, not significant): 17%; total tau levels compared with DMSO-treated APP mice (in words) ([5]; APP mice, bafetinib 5 mg/kg or LCB 2.5 mg/kg IP): significant reduction; pIC50 ([8]; read-out: IC50 to PDGFRα): 7.25
COc1cc(Nc2c(C#N)cnc3cc(OCCCN4CCN(C)CC4)c(OC)cc23)c(Cl)cc1Cl [Bosutinib] | […] | – | […] | < 5.31 | medium-to-high | […] | […] | […] | 51.7 | 19.4 | 1.996 | 0.918 | – | – | – | – | – | – | – | – | –
Oc1cccc(Nc2ccnc3cc(-c4cccc(CN5CCOCC5)c4)sc23)c1 [LCB-03-0110] | < 6.00 | – | 8.89 | 8.22 | – | – | – | – | – | – | – | – | 6.39 | 6.23 | 7.16 | – | – | – | – | – | Cmax ([7]; read-out: C max Plasma, single IP dose 1.25 mg/kg, mice): 2.35 µM; Cmax ([7]; read-out: C max Plasma, single IP dose 2.5 mg/kg, mice): 3.65 µM; AUC Brain [7, 14]: 0.2302; AUC Plasma [7, 14]: 2.805; C max Brain [7, 14]: 0.245 µM; Ratio (%) brain to plasma [7, 14]: 10%; T max Time [7, 14]: 1 h; AUC Brain ([7]; single IP dose 2.5 mg/kg, mice): 0.3152; AUC Plasma ([7]; single IP dose 2.5 mg/kg, mice): 6.482; C max Brain ([7]; single IP dose 2.5 mg/kg, mice): 0.445 µM; Ratio (%) brain to plasma ([7]; single IP dose 2.5 mg/kg, mice): 12%; T max Time ([7]; single IP dose 2.5 mg/kg, mice): 1 h
Cc1cn(-c2cc(NC(=O)c3ccc(C)c(Nc4nccc(-c5cccnc5)n4)c3)cc(C(F)(F)F)c2)cn1 [Nilotinib] | […] | do not appear to inhibit Src | – | > 8.22 | – | – | – | – | – | – | – | – | > 7.22 | – | > 7.15 | no effect | significantly decreased | 1 | 174 | 33.7 | pIC50 [10]: […]; reduction of phospho-tau (ser396) compared with DMSO [5, 15]: 28%; Aβ42 (ELISA) in Aβ42-transfected B35 cells (in words) [11]: reduce Aβ42
Cc1cn(-c2cc(NC(=O)c3ccc(C)c(Nc4nccc(-c5cnccn5)n4)c3)cc(C(F)(F)F)c2)cn1 [Radotinib] | 7.47 | do not appear to inhibit Src | < 5.70 | > 6.74 | medium-to-high | 4 to 5 | – | – | – | – | – | – | 6.89 | < 5.89 | 7.12 | no effect | significantly decreased | 1 | 83.3 | 24.4 | α-syn levels, ELISA, compared to DMSO [1, 18]: no difference; α-syn levels, Western blot, compared to DMSO [1, 18]: no change; effect on phosphorylated tau levels (in words) [5, 15]: no effect; Kp [7, 16]: 0.05; AUC Brain ([7]; single IP dose 10 mg/kg, mice): 1.839; C max Brain ([7]; single IP dose 10 mg/kg, mice): 1.004 µM
